Measurements published in patent US7709475B2, “Selective inhibitors against Cdk4 and Cdk6 having aminothiazole skeleton” (Banyu Pharmaceutical Co., Ltd., priority 2004, dated 2010).
Each block holds one compound with its values, some of them ahead of it.

Key:
[1] = tested on: KU812; assay: Inhibitory action against cell proliferation (WST-8), KU812; format: cell-based; details: Homo sapiens, 72 h, KU812 cells, 3 days culture, read-out: concentration for 50% inhibition of cell proliferation (IC50), KU812
Protocol: (§1) Clinically isolated cancer cell lines EOL-1, KU812 and JURKAT were cultured in RPMI1640 medium containing 10% fetal calf serum at 37° C. in the presence of 5% CO2 under an atmosphere of saturated steam.
(§2) The inhibitory action against cell proliferation was measured by modifying the method of Skehan et al. [J. Natl. Cancer Inst., Vo. 82, 1107-1112 (1990)] according to the method of Ishiyama et al. [Talanta, Vol. 44, 1299 (1997)]. 100 μL each of cell culture medium containing 1×10^3 live cells of EOL-1, KU812 and JURKAT, respectively, was dispensed into each well of a 96-well cell culture dish, and the cells were cultured overnight. On the next day, a dilution series of solutions in DMSO was prepared from a DMSO solution of the compound of each Example. Then, the dilution series of solutions or DMSO only as a control for no drug addition were separately added to the medium for cell culture. Finally, 100 μL each of the culture medium containing either the dilution series of solutions of the compounds or DMSO only, was added to the cells which had been cultured in a 96-well dish, and then the cells were further cultured for 3 days.
(§3) After adding 20 μL each of WST-8 (Kishida Chemical Co., Ltd.) to each well and culturing the cells for another 2 hours, the optical densities at 450 nm were measured against a reference wavelength of 650 nm, and were compared with the control group. […]

[2] = biological target: T1, cyclin A-Cdk2 (Homo sapiens, UniProt P24941); assay: Cdk2 inhibitory action: cyclin A-Cdk2 kinase activity; format: biochemical; details: cyclin A-Cdk2, 50 μM ATP
T1 construct: made in house; host or cells: insect cell Sf9 (baculovirus)
Excerpt: In the same manner as in the case of cyclin D2-Cdk4, the cDNA of Cdk2, and the cDNA of a fusion protein of cyclin A, an activating factor of Cdk2, and glutathione S-transferase, were integrated into a baculovirus expression vector to prepare a recombinant baculovirus. This was co-transfected into insect cell Sf9 to express an active complex of the cyclin A/glutathione S-transferase fusion protein-Cdk2 at a high level. The cells were recovered and solubilized, then the active complex was adsorbed onto Glutathione Sepharose, and a cyclin A-Cdk2 complex was recovered using Precision Protease and was purified by HPLC column chromatography.
For the measurement of the activity of cyclin A-Cdk2, a synthetic peptide (Ala-Lys-Ala-Lys-Lys-Thr-Pro-Lys-Lys-Ala-Lys-Lys) was used as the substrate.
(§4) The reaction was performed by partially modifying the method of Kitagawa et al. [Oncogene, Vol. 7, 1067-1074 (1992)]. The volume of the reaction solution was 21.1 μL, and to the R buffer, purified cyclin A-Cdk2, 0.01 mg/mL of the substrate peptide, 50 μM of non-labeled adenosine triphosphate (ATP), and 1 μCi of [γ-33P]-labeled ATP (2000 to 4000 Ci/mmole) were added to react at 30° C. for 30 minutes. Then, 10 μL of 350 mM phosphate buffer was added to the reaction system to terminate the reaction. The substrate peptide was adsorbed onto P81 paper filter on a 96-well plate, and then washed several times with 75 mM phosphate buffer. The radioactivity of the substrate peptide was measured with a liquid scintillation counter.
(§5) Addition of the compound according to the invention to the reaction system was carried out by first preparing a dilution series of solutions of the compound in dimethylsulfoxide (DMSO), and adding 1.1 μL of the dilutions. A control was provided by adding 1.1 μL of DMSO to the reaction system.
A representative compound of the compounds according to the invention was selected, and the IC50 value of this compound for the cyclin A-Cdk2 activity was determined.

[3] = tested on: EOL-1; assay: Inhibitory action against cell proliferation (WST-8), EOL-1; format: cell-based; details: Homo sapiens, EOL1, 72 h, EOL-1 cells, 3 days culture, read-out: concentration for 50% inhibition of cell proliferation (IC50), EOL-1
Protocol: as §1, §2, §3

[4] = biological target: T2, cyclin D2-Cdk4 (Homo sapiens, UniProt P11802); assay: Cdk4 inhibitory action: cyclin D2-Cdk4 kinase activity, 33P-ATP, RB peptide substrate; format: biochemical; details: for K1/K4, selectivity for Cdk4 against Cdk1: IC50 of Cdk1 divided by IC50 of Cdk4; for K2/K4, selectivity for Cdk4 against Cdk2: IC50 of Cdk2 divided by IC50 of Cdk4; for K5/K4, selectivity for Cdk4 against Cdk5: IC50 of Cdk5 divided by IC50 of Cdk4; for K7/K4, selectivity for Cdk4 against Cdk7: IC50 of Cdk7 divided by IC50 of Cdk4; for K9/K4, selectivity for Cdk4 against Cdk9: IC50 of Cdk9 divided by IC50 of Cdk4
T2 construct: made in house; host or cells: insect cell Sf9 (baculovirus)
T2 sequence (P11802 whole entry): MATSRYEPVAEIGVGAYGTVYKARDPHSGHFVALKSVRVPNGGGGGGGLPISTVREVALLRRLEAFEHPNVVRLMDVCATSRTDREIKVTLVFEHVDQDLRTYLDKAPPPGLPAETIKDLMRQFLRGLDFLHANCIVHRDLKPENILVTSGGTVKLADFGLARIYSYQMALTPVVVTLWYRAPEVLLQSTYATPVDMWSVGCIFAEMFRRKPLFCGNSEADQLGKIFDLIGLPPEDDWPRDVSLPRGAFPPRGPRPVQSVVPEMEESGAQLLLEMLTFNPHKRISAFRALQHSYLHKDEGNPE
T2 sequence (P30279 whole entry partner): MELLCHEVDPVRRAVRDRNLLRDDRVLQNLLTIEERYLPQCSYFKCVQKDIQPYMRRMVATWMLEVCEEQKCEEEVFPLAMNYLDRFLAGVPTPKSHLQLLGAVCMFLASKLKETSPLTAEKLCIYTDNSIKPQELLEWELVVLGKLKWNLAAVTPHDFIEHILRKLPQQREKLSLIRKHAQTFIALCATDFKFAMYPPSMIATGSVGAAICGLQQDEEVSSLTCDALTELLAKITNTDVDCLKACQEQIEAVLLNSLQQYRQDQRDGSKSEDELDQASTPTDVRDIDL

[5] = biological target: T3, p35-Cdk5 (Homo sapiens, UniProt Q00535); assay: Cdk5 inhibitory action: p35-Cdk5 kinase activity; format: biochemical; details: p35-Cdk5, 50 μM ATP
T3 construct: purchased PanVera Corp; host or cells: insect cell
T3 sequence (Q00535 whole entry): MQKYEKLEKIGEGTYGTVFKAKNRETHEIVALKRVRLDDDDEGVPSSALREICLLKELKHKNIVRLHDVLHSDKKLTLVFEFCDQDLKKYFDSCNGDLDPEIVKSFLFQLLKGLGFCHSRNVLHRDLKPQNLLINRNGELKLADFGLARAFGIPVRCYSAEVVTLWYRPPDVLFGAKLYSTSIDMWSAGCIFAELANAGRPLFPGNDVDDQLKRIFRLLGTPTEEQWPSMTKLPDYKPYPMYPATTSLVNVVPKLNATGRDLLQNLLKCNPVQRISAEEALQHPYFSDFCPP
T3 sequence (Q15078 whole entry partner): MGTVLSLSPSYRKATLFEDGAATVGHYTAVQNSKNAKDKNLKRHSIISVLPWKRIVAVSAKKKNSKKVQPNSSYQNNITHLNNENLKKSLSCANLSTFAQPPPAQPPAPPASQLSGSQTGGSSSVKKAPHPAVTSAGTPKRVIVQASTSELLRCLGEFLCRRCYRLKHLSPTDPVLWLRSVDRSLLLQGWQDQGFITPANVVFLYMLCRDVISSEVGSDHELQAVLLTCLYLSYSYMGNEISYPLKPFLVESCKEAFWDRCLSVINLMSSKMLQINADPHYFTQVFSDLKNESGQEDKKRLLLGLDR
Protocol: For the measurement of the activity of p35-Cdk5, a human-derived recombinant […] active complex, which was expressed in insect cell and purified, was purchased from PanVera Corp. A synthetic peptide (Ala-Lys-Ala-Lys-Lys-Thr-Pro-Lys-Lys-Ala-Lys-Lys) was used as the substrate.
as §4, with “cyclin p35-Cdk5,” for “cyclin A-Cdk2,”, “[…])” for “4000 Ci/mmole)”, “for 10” for “for 30”
as §5
A representative compound of the compounds according to the invention was selected, and the IC50 value of this compound for the p35-Cdk5 activity was determined.

SMILES: Cc1cc(-c2cnc(Nc3cnc(CN4CCN(C)CC4)cn3)s2)nc(OC2CCCCC2)n1 [Example 1, 5-[2-(cyclohexyloxy)-6-methyl-4-pyrimidinyl]-2-[5-(4-methyl-1-piperazinyl)methyl-2-pyrazinyl]amino-1,3-thiazole]
IC50 [1]: 150 nM
IC50 [2]: 1700 nM
IC50 [3]: 54 nM
K1/K4, selectivity for Cdk4 against Cdk1 [4]: 65
K2/K4, selectivity for Cdk4 against Cdk2 [4]: 185
K5/K4, selectivity for Cdk4 against Cdk5 [4]: 326
K7/K4, selectivity for Cdk4 against Cdk7 [4]: 58
K9/K4, selectivity for Cdk4 against Cdk9 [4]: 272

SMILES: Cc1cc(-c2cnc(Nc3cnc(CNC(C)C)cn3)s2)nc(SC2CCCCC2)n1 [Example 96, 5-[2-(cyclohexylthio)-6-methyl-4-pyrimidinyl]-2-[5-(isopropylamino)methyl-2-pyrazinyl]amino-1,3-thiazole]
IC50 [2]: 600 nM

SMILES: Cc1cc(-c2cnc(Nc3cnc(CNCCO)cn3)s2)nc(SC2CCCCC2)n1 [Example 99, 5-[2-(cyclohexylthio)-6-methyl-4-pyrimidinyl]-2-[5-(2-hydroxyethylamino)methyl-2-pyrazinyl]amino-1,3-thiazole]
IC50 [5]: 2400 nM

SMILES: CC(=O)N1CCN(Cc2ccc(Nc3ncc(-c4cc(C)nc(OC5CCCCC5)n4)s3)nc2)CC1 [Example 125, 5-[2-(cyclohexyloxy)-6-methyl-4-pyrimidinyl]-2-[5-(4-acetyl-1-piperazinyl)methyl-2-pyridyl]amino-1,3-thiazole]
IC50 [1]: 180 nM
IC50 [2]: 1600 nM
IC50 [3]: 5.6 nM

Other lines, results leading:

IC50 [2]: 850 nM
IC50 [5]: 2600 nM
K1/K4, selectivity for Cdk4 against Cdk1 [4]: 103
K2/K4, selectivity for Cdk4 against Cdk2 [4]: 142
K5/K4, selectivity for Cdk4 against Cdk5 [4]: 433
K7/K4, selectivity for Cdk4 against Cdk7 [4]: 62
K9/K4, selectivity for Cdk4 against Cdk9 [4]: 72
SMILES: Cc1cc(-c2cnc(Nc3cnc(CN4CCC(N(C)C)C4)cn3)s2)nc(OC2CCCCC2)n1 (stereo not shown) [Example 13, 5-[2-(cyclohexyloxy)-6-methyl-4-pyrimidinyl]-2-[5-(3-dimethylamino-1-pyrrolidinyl)methyl-2-pyrazinyl]amino-1,3-thiazole]

IC50 [2]: 1900 nM
SMILES: Cc1cc(-c2cnc(Nc3cnc(CN4CCN(C)CC4)cn3)s2)nc(NC2CCCCC2)n1 [Example 55, 5-[2-(cyclohexylamino)-6-methyl-4-pyrimidinyl]-2-[5-(4-methyl-1-piperazinyl)methyl-2-pyrazinyl]amino-1,3-thiazole]

IC50 [2]: 480 nM
IC50 [5]: 2900 nM
SMILES: Cc1cc(-c2cnc(Nc3cnc(CN4CCCC4)cn3)s2)nc(SC2CCCCC2)n1 [Example 93, 5-[2-(cyclohexylthio)-6-methyl-4-pyrimidinyl]-2-[5-(1-pyrrolidinyl)methyl-2-pyrazinyl]amino-1,3-thiazole]

IC50 [2]: 1700 nM
SMILES: Cc1cc(-c2cnc(Nc3cnc(CN4CCC(N(C)C)C4)cn3)s2)nc(SC2CCCCC2)n1 (stereo not shown) [Example 94, 5-[2-(cyclohexylthio)-6-methyl-4-pyrimidinyl]-2-[5-(3-dimethylamino-1-pyrrolidinyl)methyl-2-pyrazinyl]amino-1,3-thiazole]

IC50 [2]: 1000 nM
SMILES: Cc1cc(-c2cnc(Nc3cnc(CN4CCN(C)CC4)cn3)s2)nc(Sc2ccccc2Cl)n1 [Example 109, 5-[2-(2-chlorophenylthio)-6-methyl-4-pyrimidinyl]-2-[5-(4-methyl-1-piperazinyl)methyl-2-pyrazinyl]amino-1,3-thiazole]

IC50 [2]: 4500 nM
K1/K4, selectivity for Cdk4 against Cdk1 [4]: 167
K2/K4, selectivity for Cdk4 against Cdk2 [4]: 625
K5/K4, selectivity for Cdk4 against Cdk5 [4]: 417
K7/K4, selectivity for Cdk4 against Cdk7 [4]: 167
K9/K4, selectivity for Cdk4 against Cdk9 [4]: 153
SMILES: Cc1cc(-c2cnc(Nc3ccc(CN4CCC[C@H]4CO)cn3)s2)nc(NC2CCCCC2)n1 [Example 137, (2S)-5-[2-(cyclohexylamino)-6-methyl-4-pyrimidinyl]-2-[5-(2-hydroxymethyl-1-pyrrolidinyl)methyl-2-pyridyl]amino-1,3-thiazole]
